# Measurements from a melting point compilation (Tetko et al.; mined from patent text by program, amines drawn as free bases though some values may be those of a salt).
row,Structure (SMILES),melting point
1,N#Cc1nn(-c2c(Cl)cc(C(F)(F)F)cc2Cl)cc1SC(F)(F)F,126 to 128 °C
2,CC(CCn1c(=O)[nH]c2cc(F)ccc21)N1CCN(c2ccc(F)cc2)CC1 (configuration not stated),188 to 193 °C
3,CCOC(=O)C(=NOC)c1nc(N)cc(Sc2ccccc2)n1,154 to 156 °C
4,COc1ccc(-c2cc(=O)n(CC3CCCC3)nc2-c2ccc(OC)cc2)cc1,130 to 131 °C
5,C=C(C)C(=O)OCCCOc1cc(-n2nc3ccc(OC)cc3n2)c(O)c(C(C)(C)C)c1,114 to 116 °C
6,Nc1nc2c(s1)CCN(CC=Cc1ccc(F)cc1)CC2,142 to 146 °C
7,CCOC(=O)C=Cc1ccc(OCC)c([N+](=O)[O-])c1,90 to 92 °C
8,CC(C)(C)C1(O)CCN(C(=O)C2c3ccccc3CCc3ccccc32)CC1,189 to 190 °C
9,CC1(C)CC(NC(=O)C(O)c2ccccc2)c2cc(C#N)ccc2O1 (configuration not stated),120 to 121 °C
10,CCCc1c(OCCCCCOc2cc(OCCCC(=O)O)ccc2CCC(=O)O)ccc2c1OCCC2=O,163 to 164 °C
11,CCOC(=O)c1ncn2c1[C@@H]1CCCN1C(=O)c1cc(F)ccc1-2,194 to 195 °C
12,CC(C)CCCC(C)C1CCC2C3CC=C4CC(OCCCCCCI)CCC4(C)C3CCC12C (configuration not stated),104 °C
13,c1cc(-c2ccc(N3CCNCC3)cc2)[nH]n1,290 °C
14,O=c1[nH]c2cccnc2c2nc(-c3ccccc3)cn12,329 to 330 °C
15,O=C(C[C@H](C(=O)N[C@H](CO)Cc1ccccc1)n1cc(-c2ccc(-c3ccccc3)cc2)cn1)OCc1ccccc1,116 to 117 °C
16,COc1ccc(-n2nc(C(F)F)cc2-c2ccc(SC)cc2)cc1,100 to 101 °C
17,Cn1c(=O)c(Oc2ccccc2F)cc2cnc(N)nc21,241 to 243 °C
18,COc1cc2c(Nc3cccc(Cl)c3F)ncnc2cc1OC1CCN(C(=O)CC(C)(C)O)CC1,196 to 199 °C
19,Cc1cc(C)cc(-c2cc(O)c(Sc3ccccc3CC3CC3)c(=O)o2)c1,168 °C
20,CC(=O)NC[C@H]1CN(c2ccc(N3CCSCC3)c(F)c2)C(=O)O1,186 °C
21,CC1(C)OCCn2c1nc(C(=O)NCc1ccc(F)cc1P(=O)(O)OCc1ccccc1)c(OCc1ccccc1)c2=O,142 °C
22,O=C1C[C@@H]2O[C@@H](CS(=O)(=O)Cc3ccccc3)CN12 (racemic),137 to 145 °C
23,Cl/C(=C/n1cncn1)c1ccc(Br)cc1Cl,84 °C

row,Structure (SMILES),melting point
1,Cc1cccc(Cn2ncc3c(N4CCN(C(=O)OC(C)(C)C)CC4)ncnc32)c1,130 to 131 °C
2,COC(=O)c1cnn(OCCCC2OCCO2)c1,40 to 42 °C
3,CCOC(=O)C1(Br)Oc2ccc(OC(C)=O)cc2OC1Br (configuration not stated),58 °C
4,CNc1noc(C(C)c2cccc(C(=O)c3ccccc3)c2)n1 (configuration not stated),100 to 101 °C
5,Cc1c(N2C[C@H](CF)[C@H](N)C2)c(F)cc2c(=O)c(C(=O)O)cn(C3CC3)c12,160 to 165 °C
6,OC1CCC(Oc2ccc3[nH]ncc3c2)CC1 (configuration not stated),112 to 118 °C
7,Nc1c(-c2cc(Cl)ccc2O)c2cc(Cl)c(C(F)(F)F)cc2[nH]c1=O,245 to 246 °C
8,Cc1ccc(S(=O)(=O)OC2=CC3COC(O3)C2=O)cc1 (configuration not stated),81 to 86 °C
9,O=C1NC(=O)C(=Cc2ccc(N3CCC4(CC3)OCCO4)c(F)c2)S1,159 to 160 °C
10,COc1cc2ncc3c4cc5c(cc4ccc3c2cc1OC)OCO5,225 °C
11,CC(C)CC(NC(=O)OC(C)(C)C)C(O)c1ccccn1 (configuration not stated),83 to 84 °C
12,N#CCC(=O)OC(COc1ccc(C(=O)c2ccccc2)c(O)c1)COc1ccc(C(=O)c2ccccc2)c(O)c1,167 to 168 °C
13,N#CCCCCn1nc(C(N)=O)c2ccccc21,182 to 185 °C
14,CC(C)(C)c1cc(-c2nnc(NCCO)s2)cc(C(C)(C)C)c1O,212 to 214 °C
15,CC(C)c1ccc(S(=O)(=O)c2ccccc2)c(C(C)C)c1,105 to 107 °C
16,c1ccc(C(c2ccccc2)(c2ccccc2)N2CCc3sccc3C2)cc1,95 °C
17,NC(=O)c1nc(-c2c(Cl)cc(C(F)(F)F)cc2Cl)[nH]c1C(N)=O,306 to 308 °C
18,CC(C)c1nc(-c2ccccc2)c(C(C)C)c(-c2ccc(F)cc2)c1CO,244 to 246 °C
19,CC(C)(NCCc1ccccc1)C(O)c1ccccc1 (configuration not stated),103 to 104 °C
20,C(#Cc1ccc(C2=CC(c3ccc(C#Cc4ccccc4)cc3)N(c3ccccc3)N2)cc1)c1ccccc1 (configuration not stated),200 to 204 °C
21,Cc1nc2cc(C(F)(F)F)ccc2n1N,190 to 192 °C
22,CN1CCC(c2nn(C(=O)c3ccc(F)cc3)c3ccccc23)CC1,132 to 133 °C
23,CC1(c2ccc3c(c2)C(c2ccccc2)=NCC(=C[N+](=O)[O-])N3)OCCO1,158 to 161 °C

# Continued, values first:
row,melting point,Structure (SMILES)
1,135 to 138 °C,O=C(c1cccs1)c1cnn2c(-c3cccc(OC4CCCC4)c3)ccnc12
2,198 to 200 °C,O=S1NC=Cc2ccccc21 (configuration not stated)
3,146 to 148 °C,CSc1ccc(NC(=O)N(C)O)cc1
4,109 °C,C=C(C)COc1cc(C)c(NC=O)c(C)c1CC(=C)C
5,81 to 86 °C,CCc1nc2c(C)cc(C)nc2n1Cc1ccc(C(CC(=O)NS(=O)(=O)c2ccccc2)c2ccccc2)cc1 (configuration not stated)
6,132 to 135 °C,COc1ccc(C(=O)CN2CCN(c3cccccc3=O)CC2)cc1OC
7,51 to 53 °C,CN(C1CC(C)(C)NC(C)(C)C1)C1CC(C)(C)NC(C)(C)C1
8,239 to 243 °C,Fc1ccc(Nc2ncnc3cnc(NC4CCNCC4)nc23)cc1Cl
9,228 to 231 °C,COc1ccc(C(=O)Nc2ccccc2)cc1N(S(=O)(=O)c1cc(Cl)cc(Cl)c1)S(=O)(=O)c1cc(Cl)cc(Cl)c1
10,164 to 166 °C,COCc1ccccc1-c1ccc(C(=O)O)cc1
11,160 to 162 °C,CC(C)CN(C)C1=NS(=O)(=O)c2cccc(Cl)c21
12,114 to 117 °C,CCCCc1oc2ccccc2c1C(=O)NCc1ccc2c(-c3ccc(C)cc3)c(OCC#N)ccc2c1
13,126 to 128 °C,CC(Cc1ccc(Oc2cc(N3CCN(Cc4ccccc4)CC3)nc(Oc3ccccc3)n2)cc1)(Oc1ccccc1)C(=O)O (configuration not stated)
14,307 to 310 °C,O=C(c1ccccc1)c1ccc(-c2ccc(-c3ccc(-c4ccc(C(=O)c5ccccc5)s4)s3)s2)s1
15,168 °C,COc1cc(Cc2cnc(N)nc2N)cc(OC(C)C(C)=O)c1OC (configuration not stated)
16,91 to 93 °C,COCOc1ccc(CO)c2cccc(C)c12
17,142 °C,CCC1CC(=O)N(Cc2cccc(NC(C)=O)c2)N=C1c1ccc(OC)c(OC)c1 (configuration not stated)
18,122 to 123 °C,CC(C)(C#N)c1ccc(C#N)cc1
19,106 to 109 °C,O=S(=O)(c1ccccc1)N1CCC(C(O)(c2ccc(F)cc2)C2CCCCC2)CC1 (configuration not stated)
20,159 to 160 °C,CC(C)(C)c1ccc(CN(Cc2cccc(OCC(=O)O)c2)S(=O)(=O)c2cccnc2)cc1
21,165 to 168 °C,COc1ccc(Cl)cc1C(=O)NCCc1ccc(-c2cc(C)cs2)c(S(N)(=O)=O)c1
22,150 °C,COC(=S)NCc1cn(-c2ccc(-n3cccc3)cc2)nn1
23,148 to 151 °C,COC(=O)c1ccc(NC(C)=O)cc1O
24,37 to 38 °C,O=S(CCC=C(F)F)NCc1ccc(Cl)cc1 (configuration not stated)
25,134 to 136 °C,N=C(NCc1ccco1)NN=Cc1c(Cl)cccc1Cl
26,207 °C,CC(=O)Nc1ccc(Sc2c(N)cc(C(=O)O)cc2S(N)(=O)=O)cc1

row,melting point,Structure (SMILES)
1,104 to 108 °C,CCCCCCCCC(O)CNCCCNCC(O)CCCCCCCC (configuration not stated)
2,171 to 175 °C,CCOCc1nc2c(N)nc3ccccc3c2n1CCNC(=O)CCCCC1SCC2NC(=O)NC21 (configuration not stated)
3,110 to 112 °C,COc1ccc(N2CCN(c3c(C)c4c(c(OC(C)C)c3C)OC(C)C4)CC2)cc1 (configuration not stated)
4,199 to 200 °C,COC(=O)c1cc(N)c(Oc2ccccc2)c(N2C(=O)CCC2=O)c1
5,186 to 189 °C,CN1CCN(c2ccccc2C=C2CCN(c3ccc(C(F)(F)F)cc3)C2=O)CC1
6,212 to 213 °C,CCn1c(C#N)ccc1-c1ccc2c(c1)C(C)(C)OC(=S)N2
7,217 to 219 °C,CN1c2cccc(CC(=O)O)c2Sc2c(C(N)C(=O)OCC3c4ccccc4-c4ccccc43)cccc21 (configuration not stated)
8,152 to 154 °C,CN1C(=O)N=C(NCc2ccccc2)C1=O
9,149 to 150 °C,Cc1cc(OCc2ccccc2)cc(C)c1CC(=O)O
10,118 to 120 °C,CCOC(=O)C1=CC(NC(=NC(=O)OC(C)(C)C)NC(=O)OC(C)(C)C)C(NC(C)=O)C(C(O)C2COC(C)(C)O2)O1 (configuration not stated)
11,75.9 to 77.2 °C,C=COC(=O)C1=Cc2cc(Cl)cc(C=C)c2OC1C(F)(F)F (configuration not stated)
12,164 to 166 °C,Cc1ccc(Cl)c(N2C(=O)C(=O)c3ccccc32)c1Cl
13,97 to 98 °C,CN(CC1COc2ccccc2O1)S(N)(=O)=O (configuration not stated)
14,216 to 217 °C,O=C(N[C@H](Cc1ccc(CC(F)(F)C(F)(F)F)cc1)[C@@H](O)c1cccc(Cl)c1)c1cccc2c(Cl)cccc12 (racemic)
15,139 to 144 °C,COc1cc2c(cc1OC)/C(=N/OCc1ccc([N+](=O)[O-])cc1)CC2
16,88 to 90 °C,COc1ccc(-c2nc(Cl)cc(N3CCN(C)CC3)n2)cc1
17,110 to 113 °C,CCN(C(C)=O)c1cccc(C(=O)C=CN(C)C)c1
18,130 to 131 °C,Clc1ccc(Cn2c(-c3ccc4c(c3)OCO4)nc3ccccc32)s1
19,85 to 89 °C,CC(C)N(N=O)c1ccc(N(N=O)c2ccccc2)cc1
20,108 to 112 °C,COc1ccc(-c2ccc3c(c2)CC[C@H]2N(C)C(=O)CC[C@]32C)cc1OC
21,305 °C,O=C(Nc1cc2nc(-c3ccc(C(=O)C45CC6CC(CC(C6)C4)C5)cc3)[nH]c2cn1)c1ccccn1
22,244 to 245 °C,Cc1c(-c2ccc(Cl)cc2)nc2ccc(C(=O)NC(Cc3ccc(OCc4ccccc4)cc3)C(=O)O)cn12 (configuration not stated)
23,127 to 129 °C,CCCCCCNC(=O)C1=C(C(=O)Nc2cc(OC3CCC(C)C3)c(Cl)cc2F)CCCC1 (configuration not stated)
24,147 to 150 °C,CC(C)OC(=O)c1ccc2c(c1)ncn2-c1cccc(-c2cccnc2Cl)c1
25,184 to 185 °C,O=C(O)c1ccc(OCc2ccccc2)c(OCc2ccccc2)c1
